# Source: patent US9603364B2 (Dow AgroSciences LLC, priority 2013, dated 2017)
# Assays:
# Assay in all cases: General post-emergent herbicidal activity, foliar application
# Format in all cases: in vivo
# Zea mays L. (corn) = settings: 336 h, scored after 14 days, read-out: % Visual Growth Reduction ZEAMX; for plant injury at 70 g/ha: 70 g ai/ha; for plant injury at 140 g/ha: 140 g ai/ha
# Procedure: (§1) A weighed amount, determined by the highest rate to be tested, of each test compound was placed in a 25 mL glass vial and was dissolved in 4 mL of a 97:3 v/v (volume/volume) mixture of acetone and dimethyl sulfoxide to obtain concentrated stock solutions which will be referred to as General Purpose Solvent. […] The concentrated stock solutions obtained were diluted with 20 mL of an aqueous mixture containing water, General Purpose Solvent, isopropyl alcohol, Atplus 411F crop oil concentrate, and Triton X-155 surfactant in a 46:42:12:1.0:0.02 v/v ratio to obtain spray solutions containing the highest application rates. Additional application rates were obtained by serial dilution of 12 mL of the high rate solution into a solution containing 2 mL of 97:3 v/v (volume/volume) mixture of acetone and dimethyl sulfoxide and 10 mL of an aqueous mixture containing water, General Purpose Solvent, isopropyl alcohol, Atplus 411F crop oil concentrate, and Triton X-155 surfactant in a 46:42:12:1.0:0.02 v/v ratio to obtain 1/2×, 1/4×, 1/8× and 1/16× rates of the high rate. […] Control plants were sprayed in the same manner with the solvent blank.
# (§2) The treated plants and control plants were placed in a greenhouse as described above and watered by sub-irrigation to prevent wash-off of the test compounds. After 14 days, the condition of the test plants as compared with that of the untreated plants was determined visually and scored on a scale of 0 to 100 percent where 0 corresponds to no injury and 100 corresponds to complete kill.
# Oryza sativa L. (rice) = settings: Oryza sativa, 336 h, scored after 14 days, read-out: % Visual Growth Reduction ORYSA; for plant injury at 70 g/ha: 70 g ai/ha; for plant injury at 140 g/ha: 140 g ai/ha
# Procedure: as §1, §2
# [1] = test system: Chenopodium album L. (lambsquarters, common); settings: for pest or weed control at 70 g/ha: 70 g ai/ha; for pest or weed control at 140 g/ha: 140 g ai/ha; for GR80 Value CHEAL: calculated by probit analysis, dose for 80% visual injury, may be extrapolated
# Procedure: as §1, §2
# (§3) By applying the well-accepted probit analysis as described by J. Berkson in […], 48, 565 (1953) and by D. Finney in “Probit Analysis” Cambridge University Press (1952), the dose response data gathered as expressed above can be used to calculate GR20, GR50 and GR80 values, which are defined as growth reduction factors that correspond to the effective dose of herbicide required to kill or control 20 percent, 50 percent or 80 percent, respectively, of a target plant. Data not expressed in Table A may have been used to calculate some of the GR80 values in Table B. In some cases, the GR80 values may be extrapolations calculated based on the slope of the dose response curve for individual compounds listed in Table B.
# [2] = test system: Echinochloa crus-galli (L.) Beauv. (barnyardgrass); settings: for pest or weed control at 70 g/ha: 70 g ai/ha; for pest or weed control at 140 g/ha: 140 g ai/ha; for GR80 Value ECHCG: calculated by probit analysis, dose for 80% visual injury, may be extrapolated
# Procedure: as §1, §2, §3
# [3] = test system: Euphorbia heterophylla L. (poinsettia, wild); settings: for pest or weed control at 70 g/ha: 70 g ai/ha; for pest or weed control at 140 g/ha: 140 g ai/ha; for GR80 Value EPHHL: calculated by probit analysis, dose for 80% visual injury, may be extrapolated
# Procedure: as §1, §2, §3
# [4] = test system: Amaranthus retroflexus L. (pigweed, redroot); settings: for pest or weed control at 70 g/ha: 70 g ai/ha; for pest or weed control at 140 g/ha: 140 g ai/ha; for GR80 Value AMARE: calculated by probit analysis, dose for 80% visual injury, may be extrapolated
# Procedure: as §1, §2, §3
# [5] = test system: Viola tricolor L. (pansy); settings: for pest or weed control at 70 g/ha: 70 g ai/ha; for pest or weed control at 140 g/ha: 140 g ai/ha; for GR80 Value VIOTR: calculated by probit analysis, dose for 80% visual injury, may be extrapolated
# Procedure: as §1, §2, §3
# [6] = test system: Helianthus annuus L. (sunflower, common); settings: for pest or weed control at 70 g/ha: 70 g ai/ha; for pest or weed control at 140 g/ha: 140 g ai/ha; for GR80 Value HELAN: calculated by probit analysis, dose for 80% visual injury, may be extrapolated
# Procedure: as §1, §2, §3
# [7] = Chenopodium album, 336 h, foliar post-emergent, scored after 14 days, read-out: % Visual Growth Reduction CHEAL
# [8] = Echinochloa crus-galli, 336 h, foliar post-emergent, scored after 14 days, read-out: % Visual Growth Reduction ECHCG
# [9] = Euphorbia heterophylla, 336 h, foliar post-emergent, scored after 14 days, read-out: % Visual Growth Reduction EPHHL
# [10] = Amaranthus retroflexus, 336 h, foliar post-emergent, scored after 14 days, read-out: % Visual Growth Reduction AMARE
# [11] = Viola tricolor, 336 h, foliar post-emergent, scored after 14 days, read-out: % Visual Growth Reduction VIOTR
# [12] = Helianthus annuus, 336 h, foliar post-emergent, scored after 14 days, read-out: % Visual Growth Reduction HELAN
compound,measurement,setting,value
"COC(=O)c1nc(C(F)F)c(Cl)c(N)c1Cl [Compound F7, Methyl 4-amino-3,5-dichloro-6-(difluoromethyl)picolinate]",plant injury at 70 g/ha,Zea mays L. (corn),0%
same,plant injury at 140 g/ha,Zea mays L. (corn),0%
same,plant injury at 280 g/ha,Zea mays L. (corn); 280 g ai/ha,10%
same,plant injury at 70 g/ha,Oryza sativa L. (rice),0%
same,plant injury at 140 g/ha,Oryza sativa L. (rice),0%
same,plant injury at 280 g/ha,Oryza sativa L. (rice); 280 g ai/ha,0%
same,pest or weed control at 70 g/ha,[1]; [7],0%
same,pest or weed control at 140 g/ha,[1]; [7],0%
same,pest or weed control at 280 g/ha,"[1]; Chenopodium album, 336 h, 280 g ai/ha, foliar post-emergent, scored after 14 days, read-out: % Visual Growth Reduction CHEAL",0%
same,GR80 Value CHEAL,[1],>280 g ai/ha
same,pest or weed control at 70 g/ha,[2]; [8],0%
same,pest or weed control at 140 g/ha,[2]; [8],0%
same,pest or weed control at 280 g/ha,"[2]; Echinochloa crus-galli, 336 h, 280 g ai/ha, foliar post-emergent, scored after 14 days, read-out: % Visual Growth Reduction ECHCG",0%
same,GR80 Value ECHCG,[2],>280 g ai/ha
same,pest or weed control at 70 g/ha,[3]; [9],90%
same,pest or weed control at 140 g/ha,[3]; [9],100%
same,pest or weed control at 280 g/ha,"[3]; Euphorbia heterophylla, 336 h, 280 g ai/ha, foliar post-emergent, scored after 14 days, read-out: % Visual Growth Reduction EPHHL",100%
same,GR80 Value EPHHL,[3],17.5 g ai/ha
same,pest or weed control at 70 g/ha,[4]; [10],75%
same,pest or weed control at 140 g/ha,[4]; [10],90%
same,pest or weed control at 280 g/ha,"[4]; Amaranthus retroflexus, 336 h, 280 g ai/ha, foliar post-emergent, scored after 14 days, read-out: % Visual Growth Reduction AMARE",100%
same,GR80 Value AMARE,[4],84.2 g ai/ha
same,pest or weed control at 70 g/ha,[5]; [11],0%
same,pest or weed control at 140 g/ha,[5]; [11],0%
same,pest or weed control at 280 g/ha,"[5]; Viola tricolor, 336 h, 280 g ai/ha, foliar post-emergent, scored after 14 days, read-out: % Visual Growth Reduction VIOTR",0%
same,GR80 Value VIOTR,[5],>280 g ai/ha
same,pest or weed control at 70 g/ha,[6]; [12],60%
same,pest or weed control at 140 g/ha,[6]; [12],80%
same,pest or weed control at 280 g/ha,"[6]; Helianthus annuus, 336 h, 280 g ai/ha, foliar post-emergent, scored after 14 days, read-out: % Visual Growth Reduction HELAN",90%
same,GR80 Value HELAN,[6],145 g ai/ha
"COC(=O)c1nc(C(C)(C)F)c(F)c(N)c1Cl [Compound F8, Methyl 4-amino-3-chloro-5-fluoro-6-(2-fluoropropan-2-yl)picolinate]",plant injury at 40 g/ha,Zea mays L. (corn); 40 g ai/ha,0%
same,plant injury at 80 g/ha,Zea mays L. (corn); 80 g ai/ha,0%
same,plant injury at 160 g/ha,Zea mays L. (corn); 160 g ai/ha,0%
same,plant injury at 40 g/ha,Oryza sativa L. (rice); 40 g ai/ha,0%
same,plant injury at 80 g/ha,Oryza sativa L. (rice); 80 g ai/ha,0%
same,plant injury at 160 g/ha,Oryza sativa L. (rice); 160 g ai/ha,8%
same,pest or weed control at 40 g/ha,"[1]; Chenopodium album, 336 h, 40 g ai/ha, foliar post-emergent, scored after 14 days, read-out: % Visual Growth Reduction CHEAL",90%
same,pest or weed control at 80 g/ha,"[1]; Chenopodium album, 336 h, 80 g ai/ha, foliar post-emergent, scored after 14 days, read-out: % Visual Growth Reduction CHEAL",90%
same,pest or weed control at 160 g/ha,"[1]; Chenopodium album, 336 h, 160 g ai/ha, foliar post-emergent, scored after 14 days, read-out: % Visual Growth Reduction CHEAL",90%
same,GR80 Value CHEAL,[1],36.9 g ai/ha
same,pest or weed control at 40 g/ha,"[2]; Echinochloa crus-galli, 336 h, 40 g ai/ha, foliar post-emergent, scored after 14 days, read-out: % Visual Growth Reduction ECHCG",0%
same,pest or weed control at 80 g/ha,"[2]; Echinochloa crus-galli, 336 h, 80 g ai/ha, foliar post-emergent, scored after 14 days, read-out: % Visual Growth Reduction ECHCG",0%
same,pest or weed control at 160 g/ha,"[2]; Echinochloa crus-galli, 336 h, 160 g ai/ha, foliar post-emergent, scored after 14 days, read-out: % Visual Growth Reduction ECHCG",50%
same,GR80 Value ECHCG,[2],213 g ai/ha
same,pest or weed control at 40 g/ha,"[3]; Euphorbia heterophylla, 336 h, 40 g ai/ha, foliar post-emergent, scored after 14 days, read-out: % Visual Growth Reduction EPHHL",90%
same,pest or weed control at 80 g/ha,"[3]; Euphorbia heterophylla, 336 h, 80 g ai/ha, foliar post-emergent, scored after 14 days, read-out: % Visual Growth Reduction EPHHL",100%
same,pest or weed control at 160 g/ha,"[3]; Euphorbia heterophylla, 336 h, 160 g ai/ha, foliar post-emergent, scored after 14 days, read-out: % Visual Growth Reduction EPHHL",100%
same,GR80 Value EPHHL,[3],17.9 g ai/ha
same,pest or weed control at 40 g/ha,"[4]; Amaranthus retroflexus, 336 h, 40 g ai/ha, foliar post-emergent, scored after 14 days, read-out: % Visual Growth Reduction AMARE",90%
same,pest or weed control at 80 g/ha,"[4]; Amaranthus retroflexus, 336 h, 80 g ai/ha, foliar post-emergent, scored after 14 days, read-out: % Visual Growth Reduction AMARE",100%
same,pest or weed control at 160 g/ha,"[4]; Amaranthus retroflexus, 336 h, 160 g ai/ha, foliar post-emergent, scored after 14 days, read-out: % Visual Growth Reduction AMARE",100%
same,GR80 Value AMARE,[4],25.1 g ai/ha
same,pest or weed control at 40 g/ha,"[5]; Viola tricolor, 336 h, 40 g ai/ha, foliar post-emergent, scored after 14 days, read-out: % Visual Growth Reduction VIOTR",10%
same,pest or weed control at 80 g/ha,"[5]; Viola tricolor, 336 h, 80 g ai/ha, foliar post-emergent, scored after 14 days, read-out: % Visual Growth Reduction VIOTR",50%
same,pest or weed control at 160 g/ha,"[5]; Viola tricolor, 336 h, 160 g ai/ha, foliar post-emergent, scored after 14 days, read-out: % Visual Growth Reduction VIOTR",70%
same,GR80 Value VIOTR,[5],185 g ai/ha
same,pest or weed control at 40 g/ha,"[6]; Helianthus annuus, 336 h, 40 g ai/ha, foliar post-emergent, scored after 14 days, read-out: % Visual Growth Reduction HELAN",90%
same,pest or weed control at 80 g/ha,"[6]; Helianthus annuus, 336 h, 80 g ai/ha, foliar post-emergent, scored after 14 days, read-out: % Visual Growth Reduction HELAN",90%
same,pest or weed control at 160 g/ha,"[6]; Helianthus annuus, 336 h, 160 g ai/ha, foliar post-emergent, scored after 14 days, read-out: % Visual Growth Reduction HELAN",90%
same,GR80 Value HELAN,[6],18.6 g ai/ha
"COC(=O)c1nc(C(C)(C)F)cc(N)c1Cl [Compound F9, methyl 4-amino-3-chloro-6-(2-fluoropropan-2-yl)picolinate]",plant injury at 70 g/ha,Zea mays L. (corn),0%
same,plant injury at 140 g/ha,Zea mays L. (corn),15%
same,plant injury at 70 g/ha,Oryza sativa L. (rice),0%
same,plant injury at 140 g/ha,Oryza sativa L. (rice),0%
same,pest or weed control at 70 g/ha,[1]; [7],70%
same,pest or weed control at 140 g/ha,[1]; [7],85%
same,GR80 Value CHEAL,[1],110 g ai/ha
same,pest or weed control at 70 g/ha,[2]; [8],0%
same,pest or weed control at 140 g/ha,[2]; [8],0%
same,GR80 Value ECHCG,[2],>140 g ai/ha
same,pest or weed control at 70 g/ha,[3]; [9],85%
same,pest or weed control at 140 g/ha,[3]; [9],100%
same,GR80 Value EPHHL,[3],49.4 g ai/ha
same,pest or weed control at 70 g/ha,[4]; [10],100%
same,pest or weed control at 140 g/ha,[4]; [10],100%
same,GR80 Value AMARE,[4],13.7 g ai/ha
same,pest or weed control at 70 g/ha,[5]; [11],40%
same,pest or weed control at 140 g/ha,[5]; [11],30%
same,GR80 Value VIOTR,[5],>140 g ai/ha
same,pest or weed control at 70 g/ha,[6]; [12],50%
same,pest or weed control at 140 g/ha,[6]; [12],50%
same,GR80 Value HELAN,[6],237 g ai/ha
